Source: publication PMC10746543, “Design principles for cyclin K molecular glue degraders” (Nature Chemical Biology, 2023)
“And” between values parts separate entries of the source, which are not always exact repeats. Equal values may be shown once. Read-outs that look alike come from different tables or passages of the source.

Legend:
[1] = test system: cyclin K–eGFP degradation reporter; experiment: Cyclin K reporter stability analysis (dual-color cyclin K–eGFP reporter); type: cell-based, human; conditions: for reporter assay signal (normalized): replicates; for cyclin K reporter degradation, result in words / Normalized GFP/mCheery: HEK293T; for DC50: source data sheet correlations, read-out: DC50; for Normalized GFP/mCheery: flow source data
Outline: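 Readout: flow-cytometric eGFP/mCherry ratio (geometric means, round mCherry+ gate) relative to the average of three DMSO wells. Reporter line was HEK293T–Cas9, treated 5 h with compound.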

CDK12–cyclin K = CDK12–cyclin K (Homo sapiens, UniProt Q9NYV4); experiment: Lanthascreen kinase binding assay, CDK12; conditions: for Lanthascreen raw signal, sheet CDK12: duplicates
Procedure: Lanthascreen experiments were performed using commercially available reagents (Thermo Fisher) and according to the manufacturer’s instructions.

CDK12 = target: T1, CDK12 (Homo sapiens, UniProt Q16531+Q9NYV4); experiment: Label-free quantitative mass spectrometry in MDA-MB-231 cells, CDK12; type: cell-based; conditions: for CDK12 peptide count: label-free quantitative MS, replicate values; for CDK12 peptide count (DMSO-normalised): normalised to DMSO = 1, replicate values
T1 construct: endogenous in cells; host or cells: MDA-MB-231
Procedure: MDA-MB-231 cells were treated with DMSO or a cyclin K degrader compound at 1 µM for 5 h. Cells were collected by centrifugation and washed with phosphate-buffered saline before snap freezing in liquid nitrogen. Cells were lysed by addition of lysis buffer (8 M urea, 50 mM NaCl, 50 mM 4-(2-hydroxyethyl)-1-piperazineethanesulfonic acid (EPPS) pH 8.5, and protease and phosphatase inhibitors) and homogenization by bead beating (BioSpec) for three repeats of 30 s at 2,400 rpm. Bradford assay was used to determine the final protein concentration in the clarified cell lysate. Then 50 µg of protein for each sample was reduced, alkylated and precipitated using methanol/chloroform as previously described, and the resulting washed precipitated protein was allowed to air dry. Precipitated protein was resuspended in 4 M urea, 50 mM HEPES pH 7.4, followed by dilution to 1 M urea with the addition of 200 mM EPPS, pH 8. Proteins were first digested with LysC (1:50; enzyme:protein) for 12 h at room temperature. The LysC digestion was diluted to 0.5 M urea with 200 mM EPPS pH 8 followed by digestion with trypsin (1:50; enzyme:protein) for 6 h at 37 °C. Sample digests were acidified with formic acid to a pH of 2–3 before desalting using C18 solid phase extraction plates (SOLA, Thermo Fisher Scientific). Desalted peptides were dried in a vacuum-centrifuged and reconstituted in 0.1% formic acid for liquid chromatography–mass spectrometry analysis.
Data were collected using a TimsTOF Pro2 (Bruker Daltonics) coupled to a nanoElute LC pump (Bruker Daltonics) via a CaptiveSpray nano-electrospray source. Peptides were separated on a reversed-phase C18 column (25 cm × 75 µm inner diameter, […], IonOpticks) containing an integrated captive spray emitter. Peptides were separated using a 50 min gradient of 2–30% buffer B (acetonitrile in 0.1% formic acid) with a flow rate of 250 nl min^−1 and column temperature maintained at 50 °C.
Data-dependent acquisition (DDA) was performed in Parallel Accumulation-Serial Fragmentation (PASEF) mode to determine effective ion mobility windows for downstream diaPASEF data collection. The ddaPASEF parameters included: 100% duty cycle using accumulation and ramp times of 50 ms each, one Trapped Ion Mobility Spectrometry(TIMS)-MS scan and ten PASEF ramps per acquisition cycle. The TIMS-MS survey scan was acquired between 100 m/z and 1,700 m/z and 1/K0 of 0.7–1.3 V s cm^−2. Precursors with one to five charges were selected, and those that reached an intensity threshold of 20,000 arbitrary units were actively excluded for 0.4 min. The quadrupole isolation width was set to 2 m/z for m/z < 700 and 3 m/z for m/z > 800, with the m/z between 700 m/z and 800 m/z being interpolated linearly. […] To perform diaPASEF, the precursor distribution in the DDA m/z-ion mobility plane was used to design an acquisition scheme for data-independent acquisition (DIA) data collection that included two windows in each 50 ms diaPASEF scan. Data were acquired using 16 of these 25 Da precursor double window scans (creating 32 windows) that covered the diagonal scan line for doubly and triply charged precursors, with singly charged precursors able to be excluded by their position in the m/z-ion mobility plane. These precursor isolation windows were defined between 400 m/z and 1,200 m/z and 1/K0 of 0.7–1.3 V s cm^−2.
DirectDIA mode includes first extracting the DIA data into a collection of MS2 spectra which are searched using Spectronaut’s Pulsar search engine. The search results are then used to generate a spectral library which is then employed for the targeted analysis of the DIA data. MS/MS spectra were searched against a Swissprot human database (January 2021). Database search criteria largely followed the default settings for directDIA including: tryptic with two missed cleavages, fixed carbomidomethylation of cysteine, and variable oxidation of methionine and acetylation of protein N-termini and precursor Q-value (FDR) cut-off of 0.01. […]

[2] = compound 0.038147 nM, series r49
[3] = compound 0.152588 nM, series r49
[4] = compound 0.610352 nM, series r49
[5] = compound 9.76563 nM, series r49
[6] = compound 39.0625 nM, series r49

T1 sequence (Q9NYV4 whole entry): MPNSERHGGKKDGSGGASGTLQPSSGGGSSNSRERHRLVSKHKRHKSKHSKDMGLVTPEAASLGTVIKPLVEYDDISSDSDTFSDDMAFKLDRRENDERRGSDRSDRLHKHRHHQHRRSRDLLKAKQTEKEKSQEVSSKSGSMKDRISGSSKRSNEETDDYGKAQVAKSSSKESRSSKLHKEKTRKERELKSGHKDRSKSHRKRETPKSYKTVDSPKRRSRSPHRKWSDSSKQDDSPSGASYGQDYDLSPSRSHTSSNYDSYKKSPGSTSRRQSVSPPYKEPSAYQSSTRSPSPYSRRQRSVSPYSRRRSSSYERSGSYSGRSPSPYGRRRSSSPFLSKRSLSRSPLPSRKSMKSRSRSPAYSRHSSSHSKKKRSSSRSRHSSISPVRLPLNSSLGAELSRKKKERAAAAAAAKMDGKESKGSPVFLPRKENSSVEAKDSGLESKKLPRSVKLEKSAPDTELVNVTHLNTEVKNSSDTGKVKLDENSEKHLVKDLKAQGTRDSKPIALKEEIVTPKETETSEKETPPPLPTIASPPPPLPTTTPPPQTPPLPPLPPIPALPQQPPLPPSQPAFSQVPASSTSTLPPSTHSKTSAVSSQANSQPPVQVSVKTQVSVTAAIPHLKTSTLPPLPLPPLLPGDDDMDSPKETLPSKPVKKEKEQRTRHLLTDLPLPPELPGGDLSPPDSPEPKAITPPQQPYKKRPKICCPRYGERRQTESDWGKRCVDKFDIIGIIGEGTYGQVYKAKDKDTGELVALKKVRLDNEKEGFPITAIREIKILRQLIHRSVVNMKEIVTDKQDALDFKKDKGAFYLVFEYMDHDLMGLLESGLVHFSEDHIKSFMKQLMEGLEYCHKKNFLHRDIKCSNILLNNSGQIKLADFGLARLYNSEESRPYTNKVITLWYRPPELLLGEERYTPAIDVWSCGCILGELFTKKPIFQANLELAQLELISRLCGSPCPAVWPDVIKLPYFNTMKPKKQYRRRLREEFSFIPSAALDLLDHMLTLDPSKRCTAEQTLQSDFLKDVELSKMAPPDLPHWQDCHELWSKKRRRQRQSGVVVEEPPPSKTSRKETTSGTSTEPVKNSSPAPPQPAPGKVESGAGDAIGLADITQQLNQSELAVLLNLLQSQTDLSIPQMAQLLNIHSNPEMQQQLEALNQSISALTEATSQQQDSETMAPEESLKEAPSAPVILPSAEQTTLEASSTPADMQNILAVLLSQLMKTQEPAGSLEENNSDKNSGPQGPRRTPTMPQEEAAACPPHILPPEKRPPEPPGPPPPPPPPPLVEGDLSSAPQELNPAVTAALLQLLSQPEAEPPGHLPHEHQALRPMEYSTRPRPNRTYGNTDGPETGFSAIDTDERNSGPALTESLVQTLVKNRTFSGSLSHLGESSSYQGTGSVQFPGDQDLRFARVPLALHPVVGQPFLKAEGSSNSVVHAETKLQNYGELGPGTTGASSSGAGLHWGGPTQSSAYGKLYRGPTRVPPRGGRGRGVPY
T1 sequence (O75909 whole entry partner): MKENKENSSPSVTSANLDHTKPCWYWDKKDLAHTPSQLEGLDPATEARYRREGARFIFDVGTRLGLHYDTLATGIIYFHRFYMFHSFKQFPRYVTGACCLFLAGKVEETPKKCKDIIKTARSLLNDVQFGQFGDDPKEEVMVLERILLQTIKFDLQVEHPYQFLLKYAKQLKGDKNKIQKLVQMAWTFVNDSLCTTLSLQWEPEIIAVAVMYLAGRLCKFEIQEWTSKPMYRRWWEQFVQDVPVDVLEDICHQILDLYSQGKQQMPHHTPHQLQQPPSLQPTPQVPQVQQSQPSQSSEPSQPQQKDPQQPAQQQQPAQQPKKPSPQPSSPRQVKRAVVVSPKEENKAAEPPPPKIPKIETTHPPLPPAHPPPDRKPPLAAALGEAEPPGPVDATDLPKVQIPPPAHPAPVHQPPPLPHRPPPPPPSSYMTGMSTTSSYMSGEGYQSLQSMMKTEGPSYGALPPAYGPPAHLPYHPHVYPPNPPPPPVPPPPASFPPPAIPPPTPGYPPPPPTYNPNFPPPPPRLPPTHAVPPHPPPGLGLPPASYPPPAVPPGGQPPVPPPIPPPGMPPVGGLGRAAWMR
T1 sequence (Q16531 2-1140 limits assumed): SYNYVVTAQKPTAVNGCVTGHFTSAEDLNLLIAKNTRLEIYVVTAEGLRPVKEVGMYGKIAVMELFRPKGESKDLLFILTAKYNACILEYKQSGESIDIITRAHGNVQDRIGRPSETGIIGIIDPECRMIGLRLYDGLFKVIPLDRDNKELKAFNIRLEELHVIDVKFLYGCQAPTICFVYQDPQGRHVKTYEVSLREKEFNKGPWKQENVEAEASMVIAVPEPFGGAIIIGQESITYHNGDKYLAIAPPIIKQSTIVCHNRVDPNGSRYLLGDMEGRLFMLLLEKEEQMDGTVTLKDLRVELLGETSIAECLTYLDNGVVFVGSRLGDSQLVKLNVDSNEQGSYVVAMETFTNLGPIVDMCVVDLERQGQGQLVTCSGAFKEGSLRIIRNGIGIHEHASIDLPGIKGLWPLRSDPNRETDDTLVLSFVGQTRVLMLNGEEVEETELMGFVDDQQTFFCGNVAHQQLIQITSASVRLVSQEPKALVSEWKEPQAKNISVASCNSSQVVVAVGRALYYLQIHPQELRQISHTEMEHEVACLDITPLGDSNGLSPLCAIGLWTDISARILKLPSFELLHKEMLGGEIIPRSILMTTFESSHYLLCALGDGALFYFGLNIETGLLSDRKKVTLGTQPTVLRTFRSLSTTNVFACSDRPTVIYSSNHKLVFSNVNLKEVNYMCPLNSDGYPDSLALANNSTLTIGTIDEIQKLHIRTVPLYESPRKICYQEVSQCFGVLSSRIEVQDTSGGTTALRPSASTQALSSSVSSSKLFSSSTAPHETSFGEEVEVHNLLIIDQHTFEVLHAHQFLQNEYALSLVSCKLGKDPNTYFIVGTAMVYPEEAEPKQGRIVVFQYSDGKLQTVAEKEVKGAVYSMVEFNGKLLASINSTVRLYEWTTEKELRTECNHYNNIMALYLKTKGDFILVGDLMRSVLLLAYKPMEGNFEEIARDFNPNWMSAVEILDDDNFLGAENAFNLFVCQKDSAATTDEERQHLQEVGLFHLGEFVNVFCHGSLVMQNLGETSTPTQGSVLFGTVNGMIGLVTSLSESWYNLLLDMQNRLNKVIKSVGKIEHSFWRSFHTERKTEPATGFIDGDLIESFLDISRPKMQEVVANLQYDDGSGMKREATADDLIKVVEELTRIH
Sequence of CDK12–cyclin K (Q9NYV4 713-1052): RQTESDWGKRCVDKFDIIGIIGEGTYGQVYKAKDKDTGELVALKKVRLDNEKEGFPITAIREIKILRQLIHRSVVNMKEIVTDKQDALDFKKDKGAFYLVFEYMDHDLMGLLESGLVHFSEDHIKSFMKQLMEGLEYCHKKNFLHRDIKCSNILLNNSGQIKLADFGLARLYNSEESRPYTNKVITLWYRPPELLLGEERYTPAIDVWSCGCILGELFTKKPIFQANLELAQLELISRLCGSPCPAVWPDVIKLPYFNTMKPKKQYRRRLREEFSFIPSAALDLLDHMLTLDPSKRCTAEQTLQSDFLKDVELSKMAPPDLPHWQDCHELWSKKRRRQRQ
Sequence of CDK12–cyclin K (O75909 1-267 partner limits assumed): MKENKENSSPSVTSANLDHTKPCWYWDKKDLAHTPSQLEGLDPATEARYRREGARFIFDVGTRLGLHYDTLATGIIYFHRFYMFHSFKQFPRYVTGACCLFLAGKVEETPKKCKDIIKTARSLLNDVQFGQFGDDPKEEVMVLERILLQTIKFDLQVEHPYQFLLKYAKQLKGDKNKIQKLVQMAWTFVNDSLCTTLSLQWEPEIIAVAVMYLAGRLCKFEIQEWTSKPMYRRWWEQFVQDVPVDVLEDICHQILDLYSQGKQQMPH

Compound: CC(C)c1nn(-c2c(Cl)cccc2Cl)c2nc(Cc3ccc(OCCO)cc3)[nH]c(=O)c12 [compound 21195]
- reporter assay signal (normalized) ([1]; 2 nM): 0.9561 and 0.9287
- reporter assay signal (normalized) ([1]; 3 nM): 0.9797 and 0.9734
- reporter assay signal (normalized) ([1]; 4.5 nM): 0.9145 and 0.9397
- reporter assay signal (normalized) ([1]; 7.68 nM): 0.9019 and 0.9312
- reporter assay signal (normalized) ([1]; 22.8 nM): 0.769 and 0.8233
- reporter assay signal (normalized) ([1]; 34.2 nM): 0.7674 and 0.787
- reporter assay signal (normalized) ([1]; 51.3 nM): 0.6849 and 0.771
- reporter assay signal (normalized) ([1]; 77 nM): 0.6566 and 0.7136
- reporter assay signal (normalized) ([1]; 260 nM): 0.6047 and 0.6647
- reporter assay signal (normalized) ([1]; 390 nM): 0.6094 and 0.6714
- reporter assay signal (normalized) ([1]; 585 nM): 0.6094 and 0.6655
- reporter assay signal (normalized) ([1]; 877 nM): 0.6086 and 0.6352
- reporter assay signal (normalized) ([1]; 1970 nM): 0.5992 and 0.6495
- reporter assay signal (normalized) ([1]; 2960 nM): 0.552 and 0.6731
- reporter assay signal (normalized) ([1]; 4440 nM): 0.5937 and 0.62
- reporter assay signal (normalized) ([1]; 6670 nM): 0.5457 and 0.6014
- reporter assay signal (normalized) ([1]; 10000 nM): 0.5701 and 0.6031
- cyclin K reporter degradation, result in words [1]: potent degraders
- DC50 [1]: 26 nM
- IC50 (CDK12–cyclin K; Supplementary Table 2, read-out: Lanthascreen IC50 [nM] CDK12): 31 nM
- Lanthascreen raw signal, sheet CDK12 (CDK12–cyclin K; [2]): 0.008046 and 0.008167
- Lanthascreen raw signal, sheet CDK12 (CDK12–cyclin K; [3]): 0.01001 and 0.009391
- Lanthascreen raw signal, sheet CDK12 (CDK12–cyclin K; [4]): 0.008764 and 0.009174
- Lanthascreen raw signal, sheet CDK12 (CDK12–cyclin K; compound 0.76 nM, series r25): 0.01117 and 0.01013
- Lanthascreen raw signal, sheet CDK12 (CDK12–cyclin K; compound 1.02544 nM, series r1): 0.009771 and 0.007848
- Lanthascreen raw signal, sheet CDK12 (CDK12–cyclin K; compound 3.15521 nM, series r1): 0.009162 and 0.009522
- Lanthascreen raw signal, sheet CDK12 (CDK12–cyclin K; compound 4.57247 nM, series r25): 0.01016 and 0.01236
- Lanthascreen raw signal, sheet CDK12 (CDK12–cyclin K; compound 9.46563 nM, series r1): 0.007787 and 0.0086
- Lanthascreen raw signal, sheet CDK12 (CDK12–cyclin K; [5]): 0.007441 and 0.00728
- Lanthascreen raw signal, sheet CDK12 (CDK12–cyclin K; compound 13.7174 nM, series r25): 0.01024 and 0.009436
- Lanthascreen raw signal, sheet CDK12 (CDK12–cyclin K; compound 31.5521 nM, series r1): 0.006914 and 0.007088
- Lanthascreen raw signal, sheet CDK12 (CDK12–cyclin K; [6]): 0.007229 and 0.006516
- Lanthascreen raw signal, sheet CDK12 (CDK12–cyclin K; compound 41.1523 nM, series r25): 0.009216 and 0.008226
- Lanthascreen raw signal, sheet CDK12 (CDK12–cyclin K; compound 99.3891 nM, series r1): 0.004636 and 0.007689
- Lanthascreen raw signal, sheet CDK12 (CDK12–cyclin K; compound 123.457 nM, series r25): 0.007812 and 0.006741
- Lanthascreen raw signal, sheet CDK12 (CDK12–cyclin K; compound 156.25 nM, series r49): 0.006172 and 0.006187
- Lanthascreen raw signal, sheet CDK12 (CDK12–cyclin K; compound 315.521 nM, series r1): 0.005556 and 0.004599
- Lanthascreen raw signal, sheet CDK12 (CDK12–cyclin K; compound 370.37 nM, series r25): 0.006605 and 0.00608
- Lanthascreen raw signal, sheet CDK12 (CDK12–cyclin K; compound 625 nM, series r49): 0.006151 and 0.006004
- Lanthascreen raw signal, sheet CDK12 (CDK12–cyclin K; compound 2500 nM, series r49): 0.005584 and 0.005705
- Lanthascreen raw signal, sheet CDK12 (CDK12–cyclin K; compound 3155.21 nM, series r1): 0.006552 and 0.005285
- Lanthascreen raw signal, sheet CDK12 (CDK12–cyclin K; compound 3333.33 nM, series r25): 0.006042 and 0.006492
- Lanthascreen raw signal, sheet CDK12 (CDK12–cyclin K; compound 10000 nM, series r25): 0.006222 and 0.005571
- Lanthascreen raw signal, sheet CDK12 (CDK12–cyclin K; compound 10000 nM, series r49): 0.005751 and 0.005801
- Lanthascreen raw signal, sheet CDK12 (CDK12–cyclin K; compound 10002 nM, series r1): 0.00595 and 0.006099
- CDK12 peptide count (CDK12): 493.905 and 565.93
- CDK12 peptide count (DMSO-normalised) (CDK12): 0.5487 and 0.5845

Compound: C[C@H](C(=O)Nc1nc2ccccc2[nH]1)N1Cc2ccccc2C1=O [compound 919278]
- reporter assay signal (normalized) ([1]; 5 nM): 0.9951 and 0.9832
- reporter assay signal (normalized) ([1]; 10.7 nM): 0.9896 and 0.9546
- Normalized GFP/mCheery ([1]; 22.9 nM): 0.8457
- reporter assay signal (normalized) ([1]; 22.9 nM): 0.9344 and 0.9583
- Normalized GFP/mCheery ([1]; 48.9 nM): 0.8139
- reporter assay signal (normalized) ([1]; 48.9 nM): 0.9381 and 0.9234
- Normalized GFP/mCheery ([1]; 105 nM): 0.8144
- reporter assay signal (normalized) ([1]; 105 nM): 0.9087 and 0.8866
- reporter assay signal (normalized) ([1]; 224 nM): 0.8755 and 0.8691
- Normalized GFP/mCheery ([1]; 478 nM): 0.7219
- reporter assay signal (normalized) ([1]; 478 nM): 0.8011 and 0.8332
- reporter assay signal (normalized) ([1]; 2190 nM): 0.7799 and 0.7725
- reporter assay signal (normalized) ([1]; 4680 nM): 0.7431 and 0.7578
- Normalized GFP/mCheery ([1]; 10000 nM): 0.6269
- reporter assay signal (normalized) ([1]; 10000 nM): 0.7256 and 0.8167
- cyclin K reporter degradation, result in words [1]: weaker
- DC50 [1]: 176 nM
- IC50 (CDK12–cyclin K; Lanthascreen, average, Extended Data Fig. 8, read-out: CDK12 IC50): 1340 nM
- Lanthascreen raw signal, sheet CDK12 (CDK12–cyclin K; compound 0.038147 nM, series r13): 0.01141 and 0.01078
- Lanthascreen raw signal, sheet CDK12 (CDK12–cyclin K; [2]): 0.007974 and 0.007894
- Lanthascreen raw signal, sheet CDK12 (CDK12–cyclin K; compound 0.152588 nM, series r13): 0.01172 and 0.01127
- Lanthascreen raw signal, sheet CDK12 (CDK12–cyclin K; [3]): 0.009529 and 0.009772
- Lanthascreen raw signal, sheet CDK12 (CDK12–cyclin K; compound 0.610352 nM, series r13): 0.01156 and 0.01218
- Lanthascreen raw signal, sheet CDK12 (CDK12–cyclin K; [4]): 0.00969 and 0.009867
- Lanthascreen raw signal, sheet CDK12 (CDK12–cyclin K; compound 9.76563 nM, series r13): 0.01168 and 0.01068
- Lanthascreen raw signal, sheet CDK12 (CDK12–cyclin K; [5]): 0.008416 and 0.00874
- Lanthascreen raw signal, sheet CDK12 (CDK12–cyclin K; compound 39.0625 nM, series r13): 0.01187 and 0.01164
- Lanthascreen raw signal, sheet CDK12 (CDK12–cyclin K; [6]): 0.009257 and 0.00975
- Lanthascreen raw signal, sheet CDK12 (CDK12–cyclin K; compound 156.25 nM, series r13): 0.01128 and 0.01164
- Lanthascreen raw signal, sheet CDK12 (CDK12–cyclin K; compound 156.25 nM, series r49): 0.009429 and 0.008734
- Lanthascreen raw signal, sheet CDK12 (CDK12–cyclin K; compound 625 nM, series r13): 0.01093 and 0.01047
- Lanthascreen raw signal, sheet CDK12 (CDK12–cyclin K; compound 625 nM, series r49): 0.007601 and 0.007861
- Lanthascreen raw signal, sheet CDK12 (CDK12–cyclin K; compound 2500 nM, series r13): 0.009465 and 0.008988
- Lanthascreen raw signal, sheet CDK12 (CDK12–cyclin K; compound 2500 nM, series r49): 0.006693 and 0.006957
- Lanthascreen raw signal, sheet CDK12 (CDK12–cyclin K; compound 10000 nM, series r13): 0.008087 and 0.007713
- Lanthascreen raw signal, sheet CDK12 (CDK12–cyclin K; compound 10000 nM, series r49): 0.006488 and 0.006166
- CDK12 peptide count (CDK12): 562.617 and 625.634
- CDK12 peptide count (DMSO-normalised) (CDK12): 0.6251 and 0.6462
